We go through 2 compounds from US7829708B2, “Metabolically inert antifolates for treating disorders of abnormal cellular proliferation and inflammation” (Chelsea Therapeutics, Inc., priority 2004, dated 2010).

One assay has as its target Human TS (Homo sapiens, UniProt P04818). The assay can be described thus: Inhibition of recombinant thymidylate synthase in vitro. Format: biochemical. The note with it: read-out: I50 (Human TS). From the text: (§1) The ability of M-TREX to inhibit recombinant dihydrofolate reductase (DR) and thymidylate synthase (TS) in vitro studied in comparison to other antifolate drugs.

The target in a further assay is T1, human DHFR (Homo sapiens, UniProt P00374).
T1 sequence (P00374 1-187): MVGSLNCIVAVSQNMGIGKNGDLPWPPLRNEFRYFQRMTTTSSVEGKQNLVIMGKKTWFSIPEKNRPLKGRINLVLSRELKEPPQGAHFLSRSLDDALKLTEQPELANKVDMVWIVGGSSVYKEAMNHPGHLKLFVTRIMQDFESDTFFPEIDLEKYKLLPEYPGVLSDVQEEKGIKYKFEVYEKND
The assay is described as follows: Inhibition of recombinant dihydrofolate reductase in vitro. Format: biochemical. The note with it: read-out: I50 (human DHFR).
Text: as §1

Chain of Human TS (P04818 whole entry): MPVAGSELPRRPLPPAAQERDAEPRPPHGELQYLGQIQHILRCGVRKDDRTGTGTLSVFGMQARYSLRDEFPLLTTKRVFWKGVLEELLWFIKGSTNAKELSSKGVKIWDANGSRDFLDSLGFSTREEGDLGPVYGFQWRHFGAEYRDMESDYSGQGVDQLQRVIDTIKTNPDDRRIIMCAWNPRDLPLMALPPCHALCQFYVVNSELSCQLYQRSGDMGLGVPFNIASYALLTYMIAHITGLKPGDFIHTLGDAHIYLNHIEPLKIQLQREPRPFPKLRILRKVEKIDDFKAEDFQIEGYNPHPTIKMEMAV

`C=C(CC(NC(=O)c1ccc(CCc2ccc3nc(N)nc(N)c3c2)cc1)C(=O)O)C(=O)O` (stereo not drawn) [M-TREX, 4-Amino-4-deoxy-5,8,10-trideazapteroyl-4′-methylene glutamic acid]: the IC50 on Human TS amounted to 3.8 µM; on human DHFR it was 0.017 µM. As for `C=C(CC(NC(=O)c1ccc(CCc2cnc3nc(N)nc(N)c3n2)cc1)C(=O)O)C(=O)O` (stereo not drawn) [MDAM, methylene-1-deazaaminopterine, reference compound], the IC50 on human DHFR worked out at 0.044 µM.
